Source: patent US9102671B2, “Compounds and compositions as TRK inhibitors” (Novartis AG, priority 2011, dated 2015)

Key:
[1] = molecular target: T1, Ba/F3 cells transformed with human Tel-TrkA (Homo sapiens, UniProt P04629); assay: Ba/F3 cell proliferation, Ba/F3 Tel-TrkA; type: cell-based; settings: inhibition of proliferation, 48 hours, Bright-Glo luminescence; read-out: Ba/F3Tel-TrkA
T1 construct: expressed in transfected cells; host or cells: luciferase expressing Ba/F3 murine hematopoietic progenitor cell line; the other entry of the earlier key: ETV6 (P41212, Transcription factor ETV6)
T1 sequence (P04629 510-796 limits assumed): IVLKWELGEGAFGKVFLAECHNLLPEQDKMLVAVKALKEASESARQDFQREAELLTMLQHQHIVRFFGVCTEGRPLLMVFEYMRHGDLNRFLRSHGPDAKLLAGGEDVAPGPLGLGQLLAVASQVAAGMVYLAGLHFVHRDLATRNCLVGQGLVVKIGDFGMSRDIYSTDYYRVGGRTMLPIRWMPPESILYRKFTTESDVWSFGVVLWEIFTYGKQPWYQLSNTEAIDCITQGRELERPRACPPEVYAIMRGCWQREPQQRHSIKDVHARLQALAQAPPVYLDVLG
Description: (§1) Test compounds were dissolved in DMSO (10 mM) and transferred into 1.4 mL flat bottom or V-shaped Matrix tubes carrying a unique 2D matrix chip by individual compound hubs. The numbers of these chips were distinctively linked to the individual compound identification numbers. The stock solutions were stored at −20° C. if not used immediately. For the test procedure the vials were defrosted and identified by a scanner whereby a working sheet is generated that guides the subsequent working steps.
(§2) Compound dilutions were made in 384 well plates. This format enabled the assay of maximally 28 individual test compounds at 11 concentrations (single points) including 2 reference compounds. The dilution protocol included the production of pre-dilution plates, master plates and assay plates: • Compound plates: 30 μL of individual compound (10 mM) DMSO solution including reference compound were transferred into columns 1 and 13 of a 384 well plate. 20 μL of DMSO were added to the rest of the wells and the compounds were serially diluted (1:3) by transferring 10 μL from a well in column 1 or 13 to the next well in column 2 or 14 respectively and successively with the help of a Minitrack robot. • Assay plates: Identical assay plates were then prepared by adding 50 nL each of compound dilutions of the compound plates into 384-well “assay plates”. In the following the compounds were mixed with 50 μL of assays components (cells or enzyme) and tested for their inhibitory activity.
(§3) The cell line used is the luciferase expressing Ba/F3 murine hematopoietic progenitor cell line transformed with human Tel-TrkA, Tel-TrkB or Tel-TrkC cDNAs (Ba/F3 EN A/B/C). These cells maintained in RPMI/10% fetal bovine serum (RPMI/FCS) supplemented with penicillin 50 mg/mL, streptomycin 50 mg/mL and L-glutamine 200 mM. Untransformed Ba/F3 cells were similarly maintained with the addition 5 ng/ml of murine recombinant IL3. 50 μl of a Ba/F3 or Ba/F3 EN A/B/C cell suspension were plated in Greiner 384 well microplates (white)) at a density of 2000 cells per well. 50 nl of serially diluted test compound (10-0.0001 mM in DMSO solution) is added to each well. The cells were incubated for 48 hours at 37° C., 5% CO2. 25 μl of Bright Glo® (Promega) luciferase substrate is added to each well. The emited luminiscence is quantified using ViewLux (PerkinElmer). IC50 values were calculated by linear regression analysis of the percentage inhibition of each compound at 11 concentrations.
In certain examples compounds of Formula (I) have IC50 values from 0.1 nM 1 μM. In other examples, compounds of Formula (I) have IC50 values from 0.0001 μM to 0.8 μM. In other examples, compounds of Formula (I) have IC50 values from 0.0001 μM to 0.6 μM. In other examples, compounds of Formula (I) have IC50 values from 0.0001 μM to 0.4 μM. In other examples, compounds of Formula (I) have IC50 values from 0.0001 μM to 0.2 μM. In other examples, compounds of Formula (I) have IC50 values from 0.0001 μM to 0.1 μM. In other examples, compounds of Formula (I) have IC50 values from 0.0001 μM to 0.08 μM. In other examples, compounds of Formula (I) have IC50 values from 0.0001 μM to 0.06 μM. In other examples, compounds of Formula (I) have IC50 values from 0.0001 μM to 0.04 μM. In other examples, compounds of Formula (I) have IC50 values from 0.0001 μM to 0.02 μM. In other examples, compounds of Formula (I) have IC50 values from 0.0001 μM to 0.01 μM. In other examples, compounds of Formula (I) have IC50 values from 0.01 μM to 1 μM.

[2] = molecular target: T2, Ba/F3 cells co-expressing full length rTrkA and mNGF (Rattus norvegicus, UniProt P35739); assay: Ba/F3 cell proliferation, BaF3/TRKA-NGF; type: cell-based; settings: inhibition of proliferation, 48 hours, Bright-Glo luminescence
T2 construct: co-expressing full length rTrkA and mNGF; expressed in transfected cells; host or cells: Ba/F3 murine hematopoietic progenitor cells
T2 sequence (P35739 33-799): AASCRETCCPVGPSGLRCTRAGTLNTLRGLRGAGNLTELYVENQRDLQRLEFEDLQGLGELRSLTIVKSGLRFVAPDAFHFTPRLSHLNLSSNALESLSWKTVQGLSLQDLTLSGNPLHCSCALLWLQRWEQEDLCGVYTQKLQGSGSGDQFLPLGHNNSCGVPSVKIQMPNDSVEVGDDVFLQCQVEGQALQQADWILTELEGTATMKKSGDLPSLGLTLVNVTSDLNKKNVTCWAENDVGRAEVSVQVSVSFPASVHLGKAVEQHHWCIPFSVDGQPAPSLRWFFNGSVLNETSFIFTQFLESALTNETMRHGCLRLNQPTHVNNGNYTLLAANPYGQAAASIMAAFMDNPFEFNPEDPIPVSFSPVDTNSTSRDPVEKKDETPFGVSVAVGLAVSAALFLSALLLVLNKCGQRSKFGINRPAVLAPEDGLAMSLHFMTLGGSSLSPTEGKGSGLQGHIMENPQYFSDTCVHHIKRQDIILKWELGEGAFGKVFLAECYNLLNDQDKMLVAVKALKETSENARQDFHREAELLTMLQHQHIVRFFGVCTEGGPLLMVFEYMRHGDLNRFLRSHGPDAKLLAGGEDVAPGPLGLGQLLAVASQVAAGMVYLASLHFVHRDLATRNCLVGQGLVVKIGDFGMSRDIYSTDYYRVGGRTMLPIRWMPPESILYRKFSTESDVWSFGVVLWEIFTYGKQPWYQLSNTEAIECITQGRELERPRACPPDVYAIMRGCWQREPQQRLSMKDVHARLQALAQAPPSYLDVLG
T2 sequence (P01139 122-241 partner): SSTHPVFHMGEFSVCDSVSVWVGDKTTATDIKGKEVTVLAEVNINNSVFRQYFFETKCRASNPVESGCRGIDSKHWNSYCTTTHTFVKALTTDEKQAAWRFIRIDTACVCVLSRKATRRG

[3] = tested on: parental (untransformed) Ba/F3 cells; assay: Ba/F3 cell proliferation, BAF3/WT (parental, IL3); type: cell-based, murine; settings: Mus musculus, inhibition of proliferation of parental cells with IL3, 48 hours, Bright-Glo luminescence
Description: as §1, §2
Compounds were tested for their ability to inhibit the proliferation of wt Ba/F3 cells and Ba/F3 cells transformed with constitutively expressed luciferase reporter and BCR-ABL or Tel-FMS or other Tel fusion kinases (EGFR, JAK2, ALK, BMX, FGFR3, FGFR4, FGR2, FLT1, FLT3, IGF1R, INSR, KDR, KIT, LCK, LYN, MEK, MET, PDGFRα, PDGFRβ, RET, RON, ROS, SRC, SYK, TIE and TYRO) or BRafV600E. Parental Ba/F3 cells were maintained in media containing recombinant mouse IL3 and the kinase transformed Ba/F3 cells were maintained in media without IL-3. 7.5 nl of compounds were spotted to each well of 1536-well assay plates by Liquid handling System Echo 555 (Labcyte). 700 cells were then plated into each well of the assay plates in 7 uL culture media per well and compounds were tested at 0.17 nM to 10 uM in 3-fold serial dilutions. The cells were then incubated for 48 hours at 37° C. 3 uL of Bright-Glo® (Promega) was added to each well and the plates were read using ViewLux (PerkinElmer).
as §3, with “concentrations. […]” for “concentrations.”

IC50 [1]	IC50 [2]	melting point	SMILES	IC50 [3]
5 nM	8 nM	140 °C (dec.)	N#Cc1cc(F)cc([C@H]2C[C@H](F)CN2c2ccn3ncc(C(N)=O)c3c2)c1 [Example X-10, 5-((2R,4S)-2-(3-cyano-5-fluorophenyl)-4-fluoropyrrolidin-1-yl)pyrazolo[1,5-a]pyridine-3-carboxamide]	> 10000 nM
7 nM	7 nM		CCOC(=O)c1cnn2ccc(N3C[C@@H](C#N)C[C@@H]3c3cccc(F)c3)cc12 [Example X-19, ethyl 5-((2R,4S)-4-cyano-2-(3-fluorophenyl)pyrrolidin-1-yl)pyrazolo[1,5-a]pyridine-3-carboxylate]	> 10000 nM
2 nM	2 nM		CCOC(=O)c1cnn2ccc(N3C[C@@H](C(N)=O)C[C@@H]3c3cccc(F)c3)cc12 [Example X-20, ethyl 5-((2R,4S)-4-carbamoyl-2-(3-fluorophenyl)pyrrolidin-1-yl)pyrazolo[1,5-a]pyridine-3-carboxylate]	> 10000 nM
177 nM	179 nM		O=C(Nc1cnn2ccc(N3C[C@@H](F)C[C@@H]3c3cccc(F)c3)cc12)OCc1ccccc1 [Example X-21, benzyl (5-((2R,4S)-4-fluoro-2-(3-fluorophenyl)pyrrolidin-1-yl)pyrazolo[1,5-a]pyridin-3-yl)carbamate]	> 10000 nM
11 nM	17 nM		O=C(Nc1ccccc1)c1cnn2ccc(N3C[C@@H](F)C[C@@H]3c3cccc(F)c3)cc12 [Example X-22, 5-[(2R,4S)-4-fluoro-2-(3-fluorophenyl)pyrrolidin-1-yl]-N-phenylpyrazolo[1,5-a]pyridine-3-carboxamide]	> 10000 nM
154 nM	176 nM		NC(=O)Nc1cnn2ccc(N3C[C@@H](F)C[C@@H]3c3cccc(F)c3)cc12 [Example X-23, 1-(5-((2R,4S)-4-fluoro-2-(3-fluorophenyl)pyrrolidin-1-yl)pyrazolo[1,5-a]pyridin-3-yl)urea]	> 10000 nM
395 nM	119 nM		NC(=O)c1cnn2ccc(N3C[C@H](O)C[C@@H]3c3cccc(F)c3)cc12 [Example X-24, 5-[(2R,4R)-2-(3-fluorophenyl)-4-hydroxypyrrolidin-1-yl]pyrazolo[1,5-a]pyridine-3-carboxamide]	> 10000 nM
125 nM	58 nM		N#C[C@H]1C[C@H](c2cccc(F)c2)N(c2ccn3ncc(C(N)=O)c3c2)C1 [Example X-25, 5-((2R,4S)-4-cyano-2-(3-fluorophenyl)pyrrolidin-1-yl)pyrazolo[1,5-a]pyridine-3-carboxamide]	> 10000 nM
443 nM	232 nM		NC(=O)c1cnn2ccc(N3C[C@@H](C(N)=O)C[C@@H]3c3cccc(F)c3)cc12 [Example X-26, 5-((2R,4S)-4-carbamoyl-2-(3-fluorophenyl)pyrrolidin-1-yl)pyrazolo[1,5-a]pyridine-3-carboxamide]	> 10000 nM
> 10000 nM	> 10000 nM		N#Cc1cc(F)cc([C@@H]2C[C@H](F)CN2c2ccn3ncc(C(N)=O)c3c2)c1 [Example X-27]	> 10000 nM
2140 nM	1090 nM		Cc1ccc(C)c(C2CCCN2c2ccn3ncc(C(N)=O)c3c2)c1 (stereo not shown) [Example X-28]	> 10000 nM
> 10000 nM	> 10000 nM		CN1CCN(c2ccn3ncc(C(N)=O)c3c2)C(c2ccccc2)C1 (stereo not shown) [Example X-29]	> 10000 nM
